Assay: photocatalytic hydrogen evolution rate (per 5 mg catalyst); higher = more photocatalytic H2 evolution; extreme values may be limits of the assay
Details: catalyst mass (mg): 5; Pt cocatalyst (wt%): 3; sacrificial medium: triethylamine/methanol/water 1:1:1
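Note: aromatic molecules in triethylamine/methanol/water with Pt photoreduced in situ, irradiated 3 h under a 1 sun AM 1.5G solar simulator (350–1000 nm), H2 quantified by headspace gas chromatography; listed molecule itself used as the photocatalyst at 5 mg per vial.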

Structure (SMILES) | photocatalytic hydrogen evolution rate [µmol/h]
Fc1cc(Br)c(Br)cc1F | 0
O=Cc1ccc(-c2cccnc2)cc1 | 3.58
O=Cc1ccc2ccccc2c1 | 9.93
O=Cc1ccc(C=O)s1 | 0.129
OB(O)c1cccc(B(O)O)c1 | 0
O=Cc1ccc(B(O)O)cc1 | 0.0401
CC(C)(C)c1ccc(C(=O)CC#N)cc1 | 0.0435
Oc1c(Br)c(O)c(Br)c(O)c1Br | 0
O=C(O)c1cc(C(=O)O)cc(-c2ccc(-c3cc(C(=O)O)cc(C(=O)O)c3)cc2)c1 | 0.0522
COc1c(Br)cc(Br)cc1Br | 0
N[C@@H](Cc1ccccc1)C(=O)O | 0.0539
Brc1ccc(C#Cc2ccc(Br)cc2)cc1 | 0
Cc1c(C2(c3cc(Br)c(O)c(Br)c3C)OS(=O)(=O)c3ccccc32)cc(Br)c(O)c1Br | 0
O=Cc1ccc(N(c2ccccc2)c2ccc(C=O)cc2)cc1 | 1.17
N#Cc1cnc(Br)cn1 | 0.721
C#Cc1ccc(C=O)cc1 | 0
CC(C)(C)c1cc(C=O)cc(C(C)(C)C)c1O | 0
N#Cc1ccc(C#N)nc1 | 0.0617
Brc1cccc2cc3cccc(Br)c3cc12 | 0
COc1ccnc(-c2cc(OC)ccn2)c1 | 0.169
c1csc(-c2ccc(-c3cccs3)s2)c1 | 0
Brc1ccc2ccccc2c1 | 0.0179

Structure (SMILES) | photocatalytic hydrogen evolution rate [µmol/h]
CCCCCCC1(CCCCCC)c2cc(Br)ccc2-c2ccc(Br)cc21 | 0
C(#Cc1ccccc1)c1ccccc1 | 0
COC(=O)c1cccc2cc3cccc(C(=O)OC)c3cc12 | 0.0378
O=C1CCC(c2ccccc2)CC1 | 0
O=c1c2ccccc2c(=O)c2cc3c(=O)c4ccccc4c(=O)c3cc12 | 0
COC(=O)c1ccnc(-c2cc(C(=O)OC)ccn2)c1 | 0
OC1(c2ccccc2)c2cc(Br)ccc2-c2ccc(Br)cc21 | 0.101
Brc1ccc(Br)nc1 | 0
N#Cc1ccc(-c2ccccc2C#N)cc1 | 0
c1ccc2nsnc2c1 | 0
O=C(c1ccccc1)c1ccncc1 | 2.41
O=Cc1ccc(-c2ccc(C=O)cc2)cc1 | 8.89
Cn1cnc(C#N)c1C#N | 0.0397
O=C(O)c1ccc(N=Nc2ccccc2)cc1 | 0
Nc1ccc(-c2ccc(N)c([N+](=O)[O-])c2)cc1[N+](=O)[O-] | 0
N#Cc1ccc(F)cc1 | 0
N#Cc1cc(Br)ccc1Br | 0
Brc1ccccc1-c1ccccc1Br | 0
Brc1ccc2c(c1)oc1cc(Br)ccc12 | 0
CC(=O)c1ccc(C#N)cc1 | 5.7
N#Cc1ccc(C#N)cc1 | 0
O=Cc1ccc(Oc2ccc(C=O)cc2)cc1 | 2.42

Structure (SMILES) | photocatalytic hydrogen evolution rate [µmol/h]
O=Cc1ccc(C#Cc2ccccc2)cc1 | 1.66
CC(=O)c1ccc(CCc2ccc(C(C)=O)cc2)cc1 | 0.387
O=Cc1c(O)cc(O)cc1O | 0
O=C1c2cc3ccccc3cc2C(=O)c2cc3ccccc3cc21 | 6.86
Oc1ccc(O)cc1 | 0
O=c1cc(Br)[nH]c(Br)c1 | 0
N#Cc1nc(N)c(N)nc1C#N | 0
c1ccc(-c2nc3ccccc3[nH]2)cc1 | 0
O=C1NC(=O)c2cccc3cccc1c23 | 24.5
c1ccc2c(c1)c1ccccc1n2-c1ccc(N(c2ccc(-n3c4ccccc4c4ccccc43)cc2)c2ccc(-n3c4ccccc4c4ccccc43)cc2)cc1 | 0
N#Cc1ccc(Cc2ccc(C#N)cc2)cc1 | 0
COC(=O)c1ccc2cc(C(=O)OC)ccc2c1 | 0.0623
Brc1ccc(-c2ccc(-c3ccc(Br)cc3)cc2)cc1 | 0
COC(=O)c1cc(C(=O)OC)cc(C(=O)OC)c1 | 0.0198
CC(O)c1ccc2ccccc2c1 (stereo unspecified) | 0
O=C(O)Cc1ccc(Br)cc1Br | 0
ClCc1c2ccccc2c(CCl)c2ccccc12 | 0
N#Cc1cccc(-c2ccc(N)cc2)c1 | 0
Nc1c(Br)cnc(Br)c1N | 0
Nc1ccc(N)c2c1C(=O)c1c(N)ccc(N)c1C2=O | 0
COC(=O)c1nc(N)c(Br)cc1Br | 0
O=C(c1ccccc1)c1cc(C(=O)c2ccccc2)cc(C(=O)c2ccccc2)c1 | 14.2

Structure (SMILES) | photocatalytic hydrogen evolution rate [µmol/h]
c1ccc(-c2cc(-c3ccccc3)nc(-c3ccccc3)c2)cc1 | 0
Fc1cc(Br)c(F)cc1Br | 0
c1ccc(C(c2ccccc2)(c2ccccc2)c2ccccc2)cc1 | 0
N#CCC(=O)c1ccc2c(c1)CCCC2 | 0
CC1(C)OB(c2ccc(B3OC(C)(C)C(C)(C)O3)cc2)OC1(C)C | 0
Brc1ccc(Br)c2nonc12 | 0
Brc1cc(Br)cc(-c2cc(Br)cc(Br)c2)c1 | 0.0514
COc1ccc(C=O)cc1O | 0
c1ccc(-c2ccc(-c3ccc(-c4ccc(-c5ccc(-c6ccccc6)cc5)cc4)cc3)cc2)cc1 | 0
Oc1cc(Br)c(O)cc1Br | 0
Nc1nnc(Br)cc1Br | 0.0148
O=Cc1cc(O)c(O)cc1O | 0
N#Cc1cc(F)cc(C#N)c1 | 0
CC(C)(O)c1ccc(C(C)(C)O)cc1 | 0.00118
Nc1ccc(-c2c3nc(c(-c4ccc(N)cc4)c4ccc([nH]4)c(-c4ccc(N)cc4)c4nc(c(-c5ccc(N)cc5)c5ccc2[nH]5)C=C4)C=C3)cc1 | 0
c1ccc2cc3cc4ccccc4cc3cc2c1 | 0.162
N#Cc1cc(N)c(N)cc1C#N | 0
CCCc1ccc(C(=O)CC#N)cc1 | 0.0555
O=c1cccc[nH]1 | 0
Brc1cc2ccc3cc(Br)cc4ccc(c1)c2c34 | 0
Cc1cc(Br)c(C)cc1Br | 0
O=C1OC2(c3ccc(O)cc3Oc3cc(O)ccc32)c2ccccc21 | 20.2

Structure (SMILES) | photocatalytic hydrogen evolution rate [µmol/h]
O=C(c1ccc(O)cc1)c1ccc(O)cc1 | 0
c1ccc(-c2cccc(-c3ccccn3)n2)nc1 | 0.17
O=C1c2ccc(O)cc2C(=O)c2ccc(O)cc21 | 2.69
O=Cc1c2ccccc2c(C=O)c2ccccc12 | 2.97
Nc1ccc(N)c(S(=O)(=O)O)c1 | 0
N#CC(C#N)=c1c(F)c(F)c(=C(C#N)C#N)c(F)c1F | 0
Cc1cccc(N(c2ccc(C=O)cc2)c2cccc(C)c2)c1 | 0.245
O=Cc1ccc(Cl)cc1 | 0.964
Cc1c2ccccc2c(C)c2ccccc12 | 0.68
Nc1ccc2c(c1)C(=O)c1ccc(N)cc1C2=O | 0.006
c1cc(-c2nc(-c3ccncc3)nc(-c3ccncc3)n2)ccn1 | 0
CC(=O)c1cc(C(C)=O)cc(C(C)=O)c1 | 1.98
N#Cc1c(F)c(F)nc(F)c1F | 0.00201
O=C(O)c1ccc(-c2nc(-c3ccc(C(=O)O)cc3)nc(-c3ccc(C(=O)O)cc3)n2)cc1 | 0.201
Cc1ncc[nH]1 | 0
N#Cc1ncccc1Br | 0
Nc1cccc(N)c1 | 0
O=C(O)c1ccc(-c2cc(-c3ccccn3)nc(-c3ccccn3)c2)cc1 | 0.441

From the supplement of paper PMC8372320
